Data set [1] has as its system winter oilseed rape (cultivar Remy). In words: Greenhouse test, glyphosate SL formulation on oilseed rape. The class given is in vivo. Particulars: Table 2; 140 g of glyphosate/ha and 300 g of amine alkoxylate/ha. The method, then:
A concentrated formulation comprising glyphosate isopropylammonium in solution in water and amine alkoxylate from Example 2 was diluted with deionized water and applied at a water application rate of 375 l/ha (140 g of glyphosate/ha and 300 g of amine alkoxylate/ha). The temperatures in the experimental period, which lasted for 3 to 4 weeks, were between 18-35° C. During this time, the experimental plants received optimum watering, with nutrients being supplied via the water used for watering. The herbicidal activity was evaluated by awarding scores to the treated plants in comparison to the untreated control plants (Table 2). […] Conversely, 0% activity means that there were no differences between treated and untreated plants. […] The application rate was 140 g of glyphosate/ha and 300 g of amine alkoxylate/ha.

The nature of data set [2]: Gelling upon addition of amine alkoxylate to glyphosate solution. Particulars: addition at 20° C. The class given is physicochemical.
Data set [3] concerns Chenopodium album (CHEAL). Nature of the data set: Greenhouse test, imazamox SL formulation on Chenopodium. The class given is in vivo. The note with it: scored after 14 days; 10 g of imazamox/ha and 400 g of amine alkoxylate/ha. The method, then: (§1) The herbicidal activity was evaluated by awarding scores to the treated plants in comparison to the untreated control plants (Table 2). The evaluation scale ranges from 0% to 100% activity. 100% activity means the complete death at least of those parts of the plant that are above ground. Conversely, 0% activity means that there were no differences between treated and untreated plants.
(§2) The application rate was 10 g of imazamox/ha and 400 g of amine alkoxylate/ha. For comparison, a tallow fatty amine ethoxylate with 12 ethylene oxide units was used (liquid, approximately 100% content, molar mass approximately 730 g/mol (calculated from OH number), available commercially as Lutensol® FA12K from BASF SE).

Data set [4] is described as follows: Storage stability of glyphosate formulation with amine alkoxylate. The class given is physicochemical. The note with it: temperatures of from 5 to +55° C. The source says:
Also, the formulation was rainfast.

The next data set concerns Brachiarea multica. Nature of the data set: Field trial, glyphosate SL formulation with amine alkoxylate against weed. The class given is in vivo. The note with it: glyphosate-isopropylammonium SL spray solution with amine alkoxylate, visual estimate. The method, then: To this end, in each case 1.0 l of spray solution (see table 1) was sprayed per plot using a manual sprayer. 1.0 l of the spray solution contained 7.5 ml of an aqueous formulation of dissolved glyphosate-isopropyl-ammonium salt. To prepare this formulation, 100 ml of amine alkoxylate of example 2 were previously made up to 1.0 l with 46% strength glyphosate-isopropylammonium salt solution. Two, five and seven days after the application, the destruction of the weed was estimated visually in percent. Rain fell repeatedly in the days between application and assessment.

Data set [5] has as its system Ambrosia artemisiifolia (AMBEL). Nature of the data set: Greenhouse test, imazamox SL formulation on Ambrosia. The class given is in vivo. Particulars: scored after 14 days; 10 g of imazamox/ha and 400 g of amine alkoxylate/ha. The method, then: as §1, §2
Another data set concerns Daphnia magna. In words: Water toxicity on Daphnia magna, OECD Guideline 202 part 1. The class given is in vivo. The note with it: 48 h.

The EC50 is the concentration at which the effect is half-maximal. A higher EC50 goes with a need for much substance.

As to “2-propylheptylamine ethoxylate [2-PHamine-7 EO]”, the “Activity [%] after 14 days” value in data set [1] is 75%. Besides, in data set [1], the “Activity [%] after 21 days” value amounted to 86%. The “Gelling upon addition to the glyphosate solution” value in data set [2] was “no gelling observed”. The “Activity [%] CHEAL” value in data set [3] turned out to be 93%. Moreover, in data set [4], the “Storage stability of the formulation” value is “storage-stable for at least two weeks”. Moreover, the “Proportion [%] of weed destroyed” value in the data set on Brachiarea multica (2 days after application) is recorded as 40%; in the data set on Brachiarea multica (5 days after application), 87.5%; in the data set with Brachiarea multica (7 days after application), 90%. Moreover, the “Activity [%] AMBEL” value in data set [5] is recorded as 80%. For the same substance, the half-maximal effective concentration (EC50) with Daphnia magna turned out to be 60 µg/mL.

The values are drawn from patent publication US8618179B2, “Composition comprising a pesticide and an alkoxylate of 2-propylheptylamine” (BASF SE, priority 2010, dated 2013).
